In the first data set the test system is Phakopsora pachyrhizi. The experiment in a line: Example S: in vivo preventive Phakopsora test (soybeans); comparison vs. known compounds. As to conditions: rate of application 5 ppm, evaluated 7 days after inoculation. As for the experimental part: The test is evaluated 7 days after the inoculation.
With `OC(Cn1cncn1)(c1ccc(F)cc1F)C1(Oc2ccc(Cl)cc2)CC1` (stereo not drawn) [Example I-10, 1-[1-(4-chlorophenoxy)cyclopropyl]-1-(2,4-difluorophenyl)-2-(1H-1,2,4-triazol-1-yl)ethanol], the Efficacy in % was 95%.

Tested on in a further data set: not listed separately
The experiment in a line: LogP by HPLC on reversed phase columns (EEC directive 79/831 Annex V.A8). The format is physicochemical. As to conditions: [a] LC-UV, acidic range, 0.1% formic acid in water and acetonitrile as eluent. As for the experimental part:
[table] If more than one LogP value is available within the same method, all the values are given and separated by “+”. […] Lambda-max-values were determined using UV-spectra from 200 nm to 400 nm and the peak values of the chromatographic signals. Measurement of LogP values was performed as outlined above.
On to `O=C(c1ccc(F)cc1F)C1(Oc2c(F)cccc2Br)CC1` [IV-20], for which the LogP was 4.34^[a]. On the same count and under the same terms, under `O=C(c1ccc(Cl)cc1F)C1(Oc2ccc(Cl)cc2)CC1` [IV-21] stands 4.75^[a]; under `O=C(c1ccc(Cl)cc1F)C1(Oc2ccc(Cl)cc2F)CC1` [IV-22], 4.72^[a]; under `O=C(c1ccc(F)cc1F)C1(Oc2ccc(C(F)(F)F)cc2)CC1` [IV-23], 4.44^[a].

For `O=C(c1ccc(F)cc1F)C1(Oc2cccc(Cl)c2)CC1` [IV-24], the LogP was 4.34^[a]. As for `O=C(c1ccc(F)cc1F)C1(Oc2ccc(Cl)c(F)c2)CC1` [IV-25], the LogP was 4.41^[a].

In the case of `O=C(c1ccc(F)cc1F)C1(Oc2ccc(Br)c(F)c2)CC1` [IV-26], the LogP is 3.99^[a]. `O=C(c1ccc(F)cc1F)C1(Oc2ccc(OC(F)F)cc2)CC1` [IV-27]: the LogP is 3.94^[a]. With `O=C(c1ccc(F)cc1F)C1(Oc2cccc(Cl)c2F)CC1` [IV-28], the LogP was 4.21^[a].

The data set is the same for the next values; noted with them: reversed phase HPLC column, [a] LC-UV, acidic range, 0.1% formic acid in water and acetonitrile as eluent.
A word on the chromatographic logP: it is lipophilicity estimated from chromatographic retention. Low readings indicate a more hydrophilic compound, high ones a more lipophilic compound. As for `OC(Cn1cncn1)(c1ccc(F)cc1F)C1(Oc2ccc(Cl)cc2)CC1` (stereo not drawn) [Example I-10, 1-[1-(4-chlorophenoxy)cyclopropyl]-1-(2,4-difluorophenyl)-2-(1H-1,2,4-triazol-1-yl)ethanol], the chromatographic logP turned out to be 3.48.

A further data set deals with Venturia inaequalis. The experiment in a line: Example R: in vivo preventive Venturia test (apples); comparison vs. known compounds. The following applies: rate of application 10 ppm, evaluated 10 days after inoculation.
Experimental: • Solvent: 24.5 parts by weight of acetone • 24.5 parts by weight of dimethylacetamide • Emulsifier: 1 part by weight of alkylaryl polyglycol ether
After the spray coating has dried on, the plants are inoculated with an aqueous conidia suspension of the causal agent of apple scab (Venturia inaequalis) and then remain for 1 day in an incubation cabinet at approximately 20° C. and a relative atmospheric humidity of 100%.
The plants are then placed in a greenhouse at approximately 21° C. and a relative atmospheric humidity of approximately 90%.
The test is evaluated 10 days after the inoculation.
`OC(Cn1cncn1)(c1ccc(F)cc1F)C1(Oc2ccc(Cl)cc2)CC1` (stereo not drawn) [Example I-10, 1-[1-(4-chlorophenoxy)cyclopropyl]-1-(2,4-difluorophenyl)-2-(1H-1,2,4-triazol-1-yl)ethanol] had an Efficacy in % of 100%.

The record behind these values is patent US20180116220A1, “NOVEL TRIAZOLE DERIVATIVES” (BAYER CROPSCIENCE AKTIENGESELLSCHAFT, priority 2015, published 2018).
